Test results from ChEMBL document CHEMBL5113392, “Novel hybrid pyrrolidinedione-thiazolidinones as potential anticancer agents: Synthesis and biological evaluation” (Eur J Med Chem, 2022).
Active and inactive are the calls of the source. The calls are words filed in the database; no cut-off is given here.

Columns and labels:
[1] = Cytotoxicity against mitogen activated human peripheral blood lymphocytes assessed as cell growth inhibition incubated for 24 hrs by MTT assay; format: toxicity, cell-based, Lymphocyte
SF-539 = assay: Anticancer activity against human SF-539 cells assessed as total growth inhibition incubated for 48 hrs by SRB assay; format: functional
NCI-H226 [2] = assay: Anticancer activity against human NCI-H226 cells assessed as total growth inhibition incubated for 48 hrs by SRB assay; format: functional
SK-MEL-2 = assay: Anticancer activity against human SK-MEL-2 cells assessed as total growth inhibition incubated for 48 hrs by SRB assay; format: functional
COLO 205 = assay: Anticancer activity against human COLO 205 cells assessed as growth inhibition incubated for 48 hrs by SRB assay; format: functional
786-0 = assay: Anticancer activity against human 786-0 cells assessed as total growth inhibition incubated for 48 hrs by SRB assay; format: functional
HeLa = assay: Anticancer activity against human HeLa cells assessed as cell growth inhibition incubated for 72 hrs by MTT assay; format: functional
SF-268 = assay: Anticancer activity against human SF-268 cells assessed as lethality incubated for 48 hrs by SRB assay; format: functional; conditions: read-out: LC50 (the source's name)
[3] = Selectivity index, ratio of GI50 for human HaCaT cells to GI50 for human MCF7 cells; format: toxicity; conditions: HaCaT cells versus MCF7 cells, read-out: RatioGI50
PC-3 = assay: Anticancer activity against human PC-3 cells assessed as lethality incubated for 48 hrs by SRB assay; format: functional; conditions: read-out: LC50 (the source's name)
UACC-257 [4] = assay: Anticancer activity against human UACC-257 cells assessed as lethality incubated for 48 hrs by SRB assay; format: functional; conditions: read-out: LC50 (the source's name)
[5] = Anticancer activity against human HCT116-p53-null cells assessed as cell growth inhibition incubated for 72 hrs by MTT assay; format: functional
SR = assay: Anticancer activity against human SR cells assessed as total growth inhibition incubated for 48 hrs by SRB assay; format: functional
UACC-257 [6] = assay: Anticancer activity against human UACC-257 cells assessed as total growth inhibition incubated for 48 hrs by SRB assay; format: functional
HT-29 = assay: Anticancer activity against human HT-29 cells assessed as growth inhibition incubated for 48 hrs by SRB assay; format: functional
NCI-H226 [7] = assay: Anticancer activity against human NCI-H226 cells assessed as growth inhibition incubated for 48 hrs by SRB assay; format: functional
SK-OV-3 [8] = assay: Anticancer activity against human SK-OV-3 cells assessed as growth inhibition incubated for 48 hrs by SRB assay; format: functional
SF-295 = assay: Anticancer activity against human SF-295 cells assessed as growth inhibition incubated for 48 hrs by SRB assay; format: functional
TK-10 [9] = assay: Anticancer activity against human TK-10 cells assessed as growth inhibition incubated for 48 hrs by SRB assay; format: functional
NCI-H322M [10] = assay: Anticancer activity against human NCI-H322M cells assessed as growth inhibition incubated for 48 hrs by SRB assay; format: functional
NCI/ADR-RES = assay: Anticancer activity against human NCI/ADR-RES cells assessed as lethality incubated for 48 hrs by SRB assay; format: functional; conditions: read-out: LC50 (the source's name)
NCI-H23 = assay: Anticancer activity against human NCI-H23 cells assessed as lethality incubated for 48 hrs by SRB assay; format: functional; conditions: read-out: LC50 (the source's name)
MCF7 [11] = assay: Anticancer activity against human MCF7 cells assessed as growth inhibition incubated for 48 hrs by SRB assay; format: functional
HCC 2998 = assay: Anticancer activity against human HCC 2998 cells assessed as lethality incubated for 48 hrs by SRB assay; format: functional; conditions: read-out: LC50 (the source's name)
Jurkat [12] = assay: Induction of morphological changes in human Jurkat cells assessed as chromatin topology incubated for 24 hrs by Hoechst 33258 and propidium iodide staining based fluorescence microscopy; format: functional, cell-based
IGROV-1 [13] = assay: Anticancer activity against human IGROV-1 cells assessed as lethality incubated for 48 hrs by SRB assay; format: functional; conditions: read-out: LC50 (the source's name)
M14 = assay: Anticancer activity against human M14 cells assessed as growth inhibition incubated for 48 hrs by SRB assay; format: functional
OVCAR-8 = assay: Anticancer activity against human OVCAR-8 cells assessed as growth inhibition incubated for 48 hrs by SRB assay; format: functional
MDA-MB-231 = assay: Anticancer activity against human MDA-MB-231 cells assessed as cell growth inhibition incubated for 72 hrs by MTT assay; format: functional
ACHN = assay: Anticancer activity against human ACHN cells assessed as growth inhibition incubated for 48 hrs by SRB assay; format: functional
SW-620 = assay: Anticancer activity against human SW-620 cells assessed as lethality incubated for 48 hrs by SRB assay; format: functional; conditions: read-out: LC50 (the source's name)
Malme-3M [14] = assay: Anticancer activity against human Malme-3M cells assessed as growth inhibition incubated for 48 hrs by SRB assay; format: functional
K562 = assay: Anticancer activity against human K562 cells assessed as total growth inhibition incubated for 48 hrs by SRB assay; format: functional
T47D = assay: Anticancer activity against human T47D cells assessed as total growth inhibition incubated for 48 hrs by SRB assay; format: functional
Jurkat [15] = assay: Induction of morphological changes in human Jurkat cells assessed as plasma membrane blebbing incubated for 24 hrs by Hoechst 33258 and propidium iodide staining based fluorescence microscopy; format: functional, cell-based
NCI-H322M [16] = assay: Anticancer activity against human NCI-H322M cells assessed as lethality incubated for 48 hrs by SRB assay; format: functional; conditions: read-out: LC50 (the source's name)
Malme-3M [17] = assay: Anticancer activity against human Malme-3M cells assessed as total growth inhibition incubated for 48 hrs by SRB assay; format: functional
Jurkat [18] = assay: Anticancer activity against human Jurkat cells assessed as cell growth inhibition incubated for 72 hrs by MTT assay; format: functional
IGROV-1 [19] = assay: Anticancer activity against human IGROV-1 cells assessed as growth inhibition incubated for 48 hrs by SRB assay; format: functional
TK-10 [20] = assay: Anticancer activity against human TK-10 cells assessed as total growth inhibition incubated for 48 hrs by SRB assay; format: functional
OVCAR-4 [21] = assay: Anticancer activity against human OVCAR-4 cells assessed as lethality incubated for 48 hrs by SRB assay; format: functional; conditions: read-out: LC50 (the source's name)
HCT-116 = assay: Anticancer activity against human HCT-116 cells assessed as lethality incubated for 48 hrs by SRB assay; format: functional; conditions: read-out: LC50 (the source's name)
Salmon testes DNA = assay: Displacement of methyl green from salmon sperm DNA at 1 uM measured after 2 hrs by fluorescence plate reader method relative to control; format: nucleic-acid assay; conditions: Salmo salar
OVCAR-4 [22] = assay: Anticancer activity against human OVCAR-4 cells assessed as growth inhibition incubated for 48 hrs by SRB assay; format: functional
IGROV-1 [23] = assay: Anticancer activity against human IGROV-1 cells assessed as total growth inhibition incubated for 48 hrs by SRB assay; format: functional
MCF7 [24] = assay: Anticancer activity against human MCF7 cells assessed as lethality incubated for 48 hrs by SRB assay; format: functional; conditions: read-out: LC50 (the source's name)
CCRF-CEM = assay: Anticancer activity against human CCRF-CEM cells assessed as growth inhibition incubated for 48 hrs by SRB assay; format: functional
TK-10 [25] = assay: Anticancer activity against human TK-10 cells assessed as lethality incubated for 48 hrs by SRB assay; format: functional; conditions: read-out: LC50 (the source's name)
SK-OV-3 [26] = assay: Anticancer activity against human SK-OV-3 cells assessed as total growth inhibition incubated for 48 hrs by SRB assay; format: functional
SNB-19 = assay: Anticancer activity against human SNB-19 cells assessed as growth inhibition incubated for 48 hrs by SRB assay; format: functional

O=C1CC(N2C(=O)/C(=C/C(Cl)=C/c3ccc([N+](=O)[O-])cc3)SC2=S)C(=O)N1c1ccc(O)cc1 (stereo not given)
GI50 at 24 h [1]: 67.1 µM | TGI (SF-539): 3.81 µM | TGI (NCI-H226 [2]): 6.82 µM | TGI (SK-MEL-2): 7.83 µM | GI50 (COLO 205): 1.83 µM | TGI (786-0): 4.8 µM | GI50 (HeLa): 6.13 µM | CC50 (SF-268): 47.1 µM | selectivity ratio [3]: 18.4 | CC50 (PC-3): 8.6 µM | CC50 (UACC-257 [4]): 44.2 µM | GI50 [5]: 5.65 µM | TGI (SR): 4.97 µM | TGI (UACC-257 [6]): 9.12 µM | GI50 (HT-29): 0.847 µM | GI50 (NCI-H226 [7]): 2.41 µM | GI50 (SK-OV-3 [8]): 2.99 µM | GI50 (SF-295): 1.31 µM | GI50 (TK-10 [9]): 1.92 µM | GI50 (NCI-H322M [10]): 2.34 µM | CC50 (NCI/ADR-RES): > 100 µM | CC50 (NCI-H23): 7.94 µM | GI50 (MCF7 [11]): 1.21 µM | CC50 (HCC 2998): 5.76 µM | Activity (Jurkat [12]): Active | CC50 (IGROV-1 [13]): 5.98 µM | GI50 (M14): 1.46 µM | GI50 (OVCAR-8): 2.16 µM | GI50 (MDA-MB-231): 6.2 µM | GI50 (ACHN): 1.36 µM | CC50 (SW-620): 6.3 µM | GI50 (Malme-3M [14]): 2.31 µM | TGI (K562): 9.55 µM | TGI (T47D): 15.8 µM | Activity (Jurkat [15]): Active | CC50 (NCI-H322M [16]): 24.3 µM | TGI (Malme-3M [17]): 5.79 µM | GI50 (Jurkat [18]): 1.3 µM | GI50 (IGROV-1 [19]): 1.2 µM | TGI (TK-10 [20]): 3.79 µM | CC50 (OVCAR-4 [21]): 41.9 µM | CC50 (HCT-116): 5.22 µM | Activity (Salmon testes DNA): 1.4% | GI50 (OVCAR-4 [22]): 5.13 µM | TGI (IGROV-1 [23]): 2.68 µM | CC50 (MCF7 [24]): > 100 µM | GI50 (CCRF-CEM): 0.385 µM | CC50 (TK-10 [25]): 7.46 µM | TGI (SK-OV-3 [26]): 9.26 µM | GI50 (SNB-19): 1.34 µM

O=C1CC(N2C(=O)/C(=C/C(Cl)=C/c3ccc([N+](=O)[O-])cc3)SC2=S)C(=O)N1c1ccc(Cl)cc1 (stereo not given)
GI50 at 24 h [1]: 36.8 µM | TGI (SF-539): 4.14 µM | TGI (NCI-H226 [2]): 4.65 µM | TGI (SK-MEL-2): 32.1 µM | GI50 (COLO 205): 1.4 µM | TGI (786-0): 3.33 µM | GI50 (HeLa): 6.65 µM | CC50 (SF-268): > 100 µM | selectivity ratio [3]: 12.6 | CC50 (PC-3): > 100 µM | CC50 (UACC-257 [4]): > 100 µM | GI50 [5]: 6 µM | TGI (SR): 14.2 µM | TGI (UACC-257 [6]): 66.5 µM | GI50 (HT-29): 0.632 µM | GI50 (NCI-H226 [7]): 1.92 µM | GI50 (SK-OV-3 [8]): 3.56 µM | GI50 (SF-295): 1.4 µM | GI50 (TK-10 [9]): 2.79 µM | GI50 (NCI-H322M [10]): 3 µM | CC50 (NCI/ADR-RES): > 100 µM | CC50 (NCI-H23): 15 µM | GI50 (MCF7 [11]): 1.38 µM | CC50 (HCC 2998): 5.76 µM | Activity (Jurkat [12]): Active | CC50 (IGROV-1 [13]): 49.6 µM | GI50 (M14): 2.11 µM | GI50 (OVCAR-8): 0.832 µM | GI50 (MDA-MB-231): 6.45 µM | GI50 (ACHN): 1.34 µM | CC50 (SW-620): > 100 µM | GI50 (Malme-3M [14]): 3.09 µM | TGI (K562): 11.6 µM | TGI (T47D): 6.34 µM | Activity (Jurkat [15]): Active | CC50 (NCI-H322M [16]): > 100 µM | TGI (Malme-3M [17]): 11.6 µM | GI50 (Jurkat [18]): 3.4 µM | GI50 (IGROV-1 [19]): 1.03 µM | TGI (TK-10 [20]): 8.63 µM | CC50 (OVCAR-4 [21]): > 100 µM | CC50 (HCT-116): 6.85 µM | Activity (Salmon testes DNA): 4.3% | GI50 (OVCAR-4 [22]): 5.55 µM | TGI (IGROV-1 [23]): 3.26 µM | CC50 (MCF7 [24]): > 100 µM | GI50 (CCRF-CEM): 0.486 µM | CC50 (TK-10 [25]): > 100 µM | TGI (SK-OV-3 [26]): > 100 µM | GI50 (SNB-19): 1.17 µM
